Tests used:
Ba/F3_KRAS^G12D cells = Ba/F3_KRAS^G12D cells (Homo sapiens, UniProt P01116, G12D, cells depend on it); experiment: Ba/F3 KRAS^G12D cell proliferation assay (cell-titer Glo); assay type: cell-based; conditions: cell growth inhibition, treated with the compounds for 3 days, read-out: BaF3_KRAS^G12D IC50
[1] = molecular target: recombinant human KRAS^G12D protein (Homo sapiens, UniProt P01116, G12D); experiment: Temperature-dependent Fluorescence (TdF) KRAS^G12D protein binding assay; conditions: 6 μM KRAS^G12D Protein, 10 μM compound, Sypro Orange; Kd calculated from fluorescent shift
Method in brief: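 Sypro Orange thermal-shift assay, heating from 30 to 95 °C with readings every 0.4 °C (ex 470/em 570 nm). Binding is gauged as ΔTm with versus without compound. Kd is calculated from the degree of the unfolding-temperature shift.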

Chain of recombinant human KRAS^G12D protein (P01116 1-188 isoform P01116-2 G12D): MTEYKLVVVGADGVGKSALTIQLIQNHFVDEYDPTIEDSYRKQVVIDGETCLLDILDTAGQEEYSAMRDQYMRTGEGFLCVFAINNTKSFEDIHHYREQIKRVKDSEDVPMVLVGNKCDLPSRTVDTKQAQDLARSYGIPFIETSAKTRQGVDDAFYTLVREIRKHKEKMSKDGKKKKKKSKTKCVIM
Chain of Ba/F3_KRAS^G12D cells (P01116 whole entry G12D): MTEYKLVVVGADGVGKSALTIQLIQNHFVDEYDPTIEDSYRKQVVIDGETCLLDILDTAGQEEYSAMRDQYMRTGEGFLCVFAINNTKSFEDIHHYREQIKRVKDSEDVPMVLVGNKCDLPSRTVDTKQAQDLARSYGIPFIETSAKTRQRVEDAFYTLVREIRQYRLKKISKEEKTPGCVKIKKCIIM

SMILES	GI50 (Ba/F3_KRAS^G12D cells) [nM]	Kd [1] [nM]
CN(C)CCOc1nc(N2CC3CCC(C2)N3)c2cc(F)c(-c3ccccc3F)nc2c1-c1cccnc1C1CC1 [Compound 27]	500 to 5000	> 5000
CC(=O)N1CCN(c2nc(OC[C@@]34CCCN3C[C@H](F)C4)nc3c(F)c(-c4cc(O)cc5cccc(Cl)c45)ncc23)CC1 [Compound 74]	> 5000	≤ 500
CN1CCC[C@H]1Cn1c(=O)nc(N2CC3CCC(C2)N3)c2cnc(-c3cc(O)cc4ccccc34)c(F)c21 [Compound 40]	> 5000	> 5000
CN1CCC[C@H]1Cn1c(=O)nc(N2CCNCC2)c2cnc(-c3cccc4cccc(Cl)c34)c(F)c21 [Compound 35]	> 5000	> 5000
CCN1CCC(c2nc(OCC34CCCN3CCC4)nc3c(F)c(-c4cc(O)cc5cccc(Cl)c45)ncc23)CC1 [Compound 56]	500 to 5000	> 5000
Nc1cccc(F)c1-c1nc2nc(OCC34CCCN3CCC4)nc(N3CC4CCC(C3)N4)c2cc1Cl [Compound 11]	> 5000	> 5000
O=C(C(O)O)N1CCN(c2nc(OC[C@@]34CCCN3C[C@H](F)C4)nc3c(F)c(-c4cc(O)cc5cccc(Cl)c45)ncc23)CC1 [Compound 79]	> 5000	> 5000
COc1nc2c(N3CC4CCC(C3)N4)nc(OC[C@@H]3CCCN3C)nc2cc1-c1cc(O)cc2ccccc12 [Compound 91]	500 to 5000	500 to 5000
CN1CCC[C@H]1Cn1c(=O)nc(N2CC3CCC(C2)N3)c2cnc(-c3cccc4cccc(Cl)c34)c(F)c21 [Compound 33]	> 5000	> 5000
CN(C)CCOc1nc(N2C3CCC2CNC3)c2cc(F)c(-c3ccccc3F)nc2c1-c1cccnc1C1CC1 [Compound 20]	500 to 5000	> 5000
N#Cc1c(-c2cccc3cccc(Cl)c23)nc(OCC23CCCN2CCC3)c2ccc(N3CCNCC3)nc12 [Compound 98]	500 to 5000	> 5000
CN(C)CCCOc1cc2nc(-c3cccc4ccccc34)ncc2c(N2CC3CCC(C2)N3)n1 [Compound 23]	500 to 5000	> 5000
Fc1cc2c(N3CCNCC3)nc(OCC34CCCN3CCC4)nc2nc1-c1cccc2cccc(Cl)c12 [Compound 5]	> 5000	> 5000
CN(C)CCCOc1nc(N2CC3CCC(C2)N3)c2cc(F)c(-c3cccc4cccc(Cl)c34)nc2n1 [Compound 15]	> 5000	> 5000
CN1CCC[C@H]1Cn1c(=O)nc(N2CC3CCC(C2)N3)c2cc(F)c(-c3cc(O)cc4cccc(Cl)c34)nc21 [Compound 41]	> 5000	> 5000
COc1cc(-c2cc3nc(OC[C@@H]4CCCN4C)nc(N4CC5CCC(C4)N5)c3nc2OC)c2ccccc2c1 [Compound 86]	500 to 5000	> 5000
Oc1cc(-c2ncc3c(C4CCNCC4)nc(OCC45CCCN4CCC5)nc3c2F)c2c(Cl)cccc2c1 [Compound 55]	> 5000	> 5000
Clc1cccc2cccc(-c3ncc4c(N5CCNCC5)nc(OCC56CCCN5CCC6)cc4n3)c12 [Compound 48]	500 to 5000	> 5000
Oc1cc(-c2ncc3c(N4CCNCC4)nc(OC[C@@]45CCCN4C[C@H](F)C5)nc3c2F)c2c(Cl)cccc2c1 [Compound 72]	500 to 5000	≤ 500
Clc1cc2c(N3CCNCC3)nc(OCC34CCCN3CCC4)nc2nc1-c1cccc2ccccc12 [Compound 3]	> 5000	> 5000
Clc1cccc2cccc(-c3ncc4c(N5C6CCC5CNC6)nc(OCC56CCCN5CCC6)cc4n3)c12 [Compound 52]	500 to 5000	> 5000

More lines, now with the values ahead:

GI50 (Ba/F3_KRAS^G12D cells) [nM]	Kd [1] [nM]	SMILES
> 5000	500 to 5000	Cc1cc(N)nc(-c2nc(C)c3c(N4CC5CCC(C4)N5)nc(OC[C@@]45CCCN4C[C@H](F)C5)nc3c2F)c1C(F)(F)F [Compound 105]
< 500	≤ 500	C#Cc1c(F)ccc2cc(O)cc(-c3nc(Cl)c4c(N5CC6CCC(C5)N6)nc(OC[C@@H]5CCCN5C)nc4c3F)c12 [Compound 159]
< 500	≤ 500	Cc1cccc2cc(O)cc(-c3nc(C)c4c(N5CC6CCC(C5)N6)nc(OC[C@@]56CCCN5C[C@H](F)C6)nc4c3F)c12 [Compound 93]
< 500	≤ 500	Cc1nc(-c2cc(O)cc3cccc(C(F)(F)F)c23)c(F)c2nc(OC[C@@]34CCCN3C[C@H](F)C4)nc(N3CC4CCC(C3)N4)c12 [Compound 106]
< 500	≤ 500	CCc1cccc2cc(O)cc(-c3nc(CC)c4c(N5CC6CCC(C5)N6)nc(OC[C@@]56CCCN5C[C@H](F)C6)nc4c3F)c12 [Compound 118]
500 to 5000	500 to 5000	Cc1cccc2cc(O)cc(-c3ncc4c(N5CC6CCC(C5)N6)nc(OC[C@@]56CCCN5C[C@H](F)C6)c(Cl)c4n3)c12 [Compound 58]
> 5000	> 5000	N#Cc1cc2c(N3CC4CCC(C3)N4)nc(OC[C@@]34CCCN3C[C@H](F)C4)nc2nc1-c1cc(O)cc2ccccc12 [Compound 60]
> 5000	> 5000	Fc1cc2c(N3CC4CCC(C3)N4)nc(OCC34CCCN3CCC4)nc2nc1-c1cccc2cccc(Cl)c12 [Compound 7]
500 to 5000	> 5000	Oc1cc(-c2nc(OC[C@@]34CCCN3C[C@H](F)C4)c3ccc(N4CC5CCC(C4)N5)nc3c2Br)c2c(Cl)cccc2c1 [Compound 101]
< 500	≤ 500	Oc1cc(-c2nc(Cl)c3c(N4CC5CCC(C4)N5)nc(OC[C@@]45CCCN4C[C@H](F)C5)nc3c2F)c2c(Cl)cccc2c1 [Compound 114]
< 500	≤ 500	CCOc1c(F)ccc2cc(O)cc(-c3nc(OC)c4c(N5CC6CCC(C5)N6)nc(OC[C@@]56CCCN5C[C@H](F)C6)nc4c3F)c12 [Compound 148]
< 500	≤ 500	CCc1cccc2cc(O)cc(-c3nc(C)c4c(N5CC6CCC(C5)N6)nc(OC[C@@]56CCCN5C[C@H](F)C6)nc4c3F)c12 [Compound 85]
< 500	≤ 500	Cc1nc(-c2cc(O)cc3cccc(Cl)c23)c(Cl)c2nc(OC[C@@]34CCCN3C[C@H](F)C4)nc(N3CC4CCC(C3)N4)c12 [Compound 130]
< 500	≤ 500	Cc1nc(-c2cc(O)cc3ccccc23)c(F)c2nc(OC[C@@]34CCCN3C[C@H](F)C4)nc(N3CC4CCC(C3)N4)c12 [Compound 81]
< 500	≤ 500	CCc1c(F)ccc2cc(O)cc(-c3nc(C)c4c(N5CC6CCC(C5)N6)nc(OC[C@@]56CCCN5C[C@H](F)C6)nc4c3F)c12 [Compound 137]
> 5000	> 5000	Oc1cc(-c2nc3cc(OCC45CCCN4CCC5)nc(N4CC5CCC(C4)N5)c3cc2Cl)c2c(Cl)cccc2c1 [Compound 34]

GI50 (Ba/F3_KRAS^G12D cells) [nM]	Kd [1] [nM]	SMILES
< 500	≤ 500	C#Cc1c(F)ccc2cc(O)cc(-c3nc(OCC)c4c(N5CC6CCC(C5)N6)nc(OC[C@@]56CCCN5C[C@H](F)C6)nc4c3F)c12 [Compound 141]
< 500	≤ 500	COc1c(F)ccc2cc(O)cc(-c3nc(OC)c4c(N5CC6CCC(C5)N6)nc(OC[C@@]56CCCN5C[C@H](F)C6)nc4c3F)c12 [Compound 147]
> 5000	≤ 500	Nc1nc2c(-c3ncc4c(N5CC6CCC(C5)N6)nc(OC[C@@]56CCCN5C[C@H](F)C6)nc4c3F)ccc(F)c2s1 [Compound 68]
< 500	≤ 500	C#Cc1c(F)ccc2cc(O)cc(-c3nc(OC)c4c(N5CC6CCC(C5)N6)nc(OC[C@@]56CCCN5C[C@H](F)C6)nc4c3F)c12 [Compound 135]
< 500	≤ 500	Oc1cc(-c2nc(Cl)c3c(N4CC5CCC(C4)N5)nc(OC[C@@]45CCCN4C[C@H](F)C5)nc3c2Cl)c2c(Cl)cccc2c1 [Compound 120]
> 5000	500 to 5000	Cc1nc(-c2ccc(F)c3sc(N)nc23)c(F)c2nc(OC[C@@]34CCCN3C[C@H](F)C4)nc(N3CC4CCC(C3)N4)c12 [Compound 87]
> 5000	> 5000	Oc1cc(-c2ncc3c(C4CC5CCC(C4)N5)nc(OC[C@@]45CCCN4C[C@H](F)C5)nc3c2F)c2c(Cl)cccc2c1 (stereo partly shown) [Compound 100]
< 500	≤ 500	CCc1c(F)ccc2cc(O)cc(-c3nc(C(F)F)c4c(N5CC6CCC(C5)N6)nc(OC[C@@]56CCCN5C[C@H](F)C6)nc4c3F)c12 [Compound 166]
> 5000	≤ 500	Cc1nc(-c2cc(O)cc3cccc(C#N)c23)c(F)c2nc(OC[C@@]34CCCN3C[C@H](F)C4)nc(N3CC4CCC(C3)N4)c12 [Compound 115]
< 500	≤ 500	CCc1c(F)ccc2cc(O)cc(-c3nc(Cl)c4c(N5CC6CCC(C5)N6)nc(OC[C@@]56CCCN5C[C@H](F)C6)nc4c3F)c12 [Compound 138]
< 500	≤ 500	CCc1c(F)ccc2cc(O)cc(-c3nc(OC)c4c(N5CC6CCC(C5)N6)nc(OC[C@@]56CCCN5C[C@H](F)C6)nc4c3F)c12 [Compound 139]
< 500	≤ 500	Oc1cc(-c2nc(Cl)c3c(N4CC5CCC(C4)N5)nc(OC[C@@]45CCCN4C[C@H](F)C5)nc3c2F)c2ccccc2c1 [Compound 95]
< 500	≤ 500	Oc1cc(-c2ncc3c(N4CC5CCC(C4)N5)nc(OCC45CCCN4CCC5)nc3c2F)c2c(Cl)cccc2c1 [Compound 32]
500 to 5000	500 to 5000	Oc1cc(-c2ncc3c(N4CC5CCC(C4)N5)cc(OC[C@@]45CCCN4C[C@H](F)C5)nc3c2F)c2ccccc2c1 [Compound 80]
< 500	≤ 500	C#Cc1c(F)ccc2cc(O)cc(-c3cc4nc(OC[C@@]56CCCN5C[C@H](F)C6)nc(N5CC6CCC(C5)N6)c4c(C)n3)c12 [Compound 131]
< 500	≤ 500	C#Cc1c(F)ccc2cc(O)cc(-c3nc(C)c4c(N5CC6CCC(C5)N6)nc(OC[C@@]56CCCN5C[C@H](F)C6)nc4c3F)c12 [Compound 128]

— patent US20230357233A1, “HETEROARYL COMPOUNDS, PREPARATION METHODS AND USES THEREOF” (INVENTISBIO CO., LTD., priority 2020, published 2023)
